The structures appear in SMILES notation. Peptide text beside a SMILES is read from it. * marks the point of attachment. Biotin = O=C1N[C@H]2[C@H](CS[C@H]2CCCCC(=O)*)N1

The text below walks through data of patent US20050282743A1, “Molecular interactions in cells” (Arbor Vita Corporation, priority 2001, published 2005).

Common to all, as to assay type: binding
In test [1] the target is T1, PDZ protein (GST-PDZ fusion) (Homo sapiens, UniProt O14745).
T1 construct: made in house; host or cells: E. coli (DH5alpha, BL21 or JM109)
T1 sequence (O14745 1-358): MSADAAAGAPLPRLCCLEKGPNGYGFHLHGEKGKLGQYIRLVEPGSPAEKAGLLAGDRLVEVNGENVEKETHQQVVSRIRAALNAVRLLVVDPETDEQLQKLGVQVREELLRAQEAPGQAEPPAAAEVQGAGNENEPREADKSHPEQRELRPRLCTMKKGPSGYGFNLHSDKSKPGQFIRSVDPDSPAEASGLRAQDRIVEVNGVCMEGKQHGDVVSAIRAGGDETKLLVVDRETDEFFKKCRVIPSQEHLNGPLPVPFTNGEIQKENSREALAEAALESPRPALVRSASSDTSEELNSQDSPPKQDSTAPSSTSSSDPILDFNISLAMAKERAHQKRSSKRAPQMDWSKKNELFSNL
Put plainly: G' assay (10 uM PL peptide), results of TABLE 7 and TABLE 12. In outline:
(§1)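 Biotinylated PL peptides at 10 uM (vs 20 uM in G^0 assay) bound to GST-PDZ fusions; PDZ protein at 5 ug/ml unless another concentration listed. Bound peptide read as A450 nm, classified 0–5 (0 = A450 0; 5 = A450 >4 repeated).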

Test [2] deals with T2, PDZ protein (GST-PDZ fusion) (Homo sapiens, UniProt Q5T2W1).
T2 construct: made in house; host or cells: E. coli (DH5alpha, BL21 or JM109)
T2 sequence (Q5T2W1 1-519): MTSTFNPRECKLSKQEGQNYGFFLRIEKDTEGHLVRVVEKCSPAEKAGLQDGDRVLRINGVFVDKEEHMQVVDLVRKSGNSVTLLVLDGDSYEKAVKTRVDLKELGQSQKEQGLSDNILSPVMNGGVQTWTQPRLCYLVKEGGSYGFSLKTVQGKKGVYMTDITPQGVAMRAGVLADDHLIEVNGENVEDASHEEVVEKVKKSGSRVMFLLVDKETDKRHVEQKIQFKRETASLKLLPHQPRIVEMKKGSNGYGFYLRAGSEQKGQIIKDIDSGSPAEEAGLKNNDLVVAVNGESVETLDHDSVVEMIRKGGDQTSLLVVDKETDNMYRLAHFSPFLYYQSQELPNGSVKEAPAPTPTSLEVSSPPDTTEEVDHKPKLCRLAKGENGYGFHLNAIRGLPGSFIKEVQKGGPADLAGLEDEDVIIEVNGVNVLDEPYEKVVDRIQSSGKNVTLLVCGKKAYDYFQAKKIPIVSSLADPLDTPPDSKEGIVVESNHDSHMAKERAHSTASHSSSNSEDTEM
The description is as above. Particulars: PDZ PDZK-1, PDZ Domain 2. In outline:
as §1

Test [3] deals with T3, PDZ protein (GST-PDZ fusion) (Homo sapiens, UniProt Q9BYB0).
T3 construct: made in house; host or cells: E. coli (DH5alpha, BL21 or JM109)
T3 sequence (Q9BYB0 whole entry, the tested form may be a part): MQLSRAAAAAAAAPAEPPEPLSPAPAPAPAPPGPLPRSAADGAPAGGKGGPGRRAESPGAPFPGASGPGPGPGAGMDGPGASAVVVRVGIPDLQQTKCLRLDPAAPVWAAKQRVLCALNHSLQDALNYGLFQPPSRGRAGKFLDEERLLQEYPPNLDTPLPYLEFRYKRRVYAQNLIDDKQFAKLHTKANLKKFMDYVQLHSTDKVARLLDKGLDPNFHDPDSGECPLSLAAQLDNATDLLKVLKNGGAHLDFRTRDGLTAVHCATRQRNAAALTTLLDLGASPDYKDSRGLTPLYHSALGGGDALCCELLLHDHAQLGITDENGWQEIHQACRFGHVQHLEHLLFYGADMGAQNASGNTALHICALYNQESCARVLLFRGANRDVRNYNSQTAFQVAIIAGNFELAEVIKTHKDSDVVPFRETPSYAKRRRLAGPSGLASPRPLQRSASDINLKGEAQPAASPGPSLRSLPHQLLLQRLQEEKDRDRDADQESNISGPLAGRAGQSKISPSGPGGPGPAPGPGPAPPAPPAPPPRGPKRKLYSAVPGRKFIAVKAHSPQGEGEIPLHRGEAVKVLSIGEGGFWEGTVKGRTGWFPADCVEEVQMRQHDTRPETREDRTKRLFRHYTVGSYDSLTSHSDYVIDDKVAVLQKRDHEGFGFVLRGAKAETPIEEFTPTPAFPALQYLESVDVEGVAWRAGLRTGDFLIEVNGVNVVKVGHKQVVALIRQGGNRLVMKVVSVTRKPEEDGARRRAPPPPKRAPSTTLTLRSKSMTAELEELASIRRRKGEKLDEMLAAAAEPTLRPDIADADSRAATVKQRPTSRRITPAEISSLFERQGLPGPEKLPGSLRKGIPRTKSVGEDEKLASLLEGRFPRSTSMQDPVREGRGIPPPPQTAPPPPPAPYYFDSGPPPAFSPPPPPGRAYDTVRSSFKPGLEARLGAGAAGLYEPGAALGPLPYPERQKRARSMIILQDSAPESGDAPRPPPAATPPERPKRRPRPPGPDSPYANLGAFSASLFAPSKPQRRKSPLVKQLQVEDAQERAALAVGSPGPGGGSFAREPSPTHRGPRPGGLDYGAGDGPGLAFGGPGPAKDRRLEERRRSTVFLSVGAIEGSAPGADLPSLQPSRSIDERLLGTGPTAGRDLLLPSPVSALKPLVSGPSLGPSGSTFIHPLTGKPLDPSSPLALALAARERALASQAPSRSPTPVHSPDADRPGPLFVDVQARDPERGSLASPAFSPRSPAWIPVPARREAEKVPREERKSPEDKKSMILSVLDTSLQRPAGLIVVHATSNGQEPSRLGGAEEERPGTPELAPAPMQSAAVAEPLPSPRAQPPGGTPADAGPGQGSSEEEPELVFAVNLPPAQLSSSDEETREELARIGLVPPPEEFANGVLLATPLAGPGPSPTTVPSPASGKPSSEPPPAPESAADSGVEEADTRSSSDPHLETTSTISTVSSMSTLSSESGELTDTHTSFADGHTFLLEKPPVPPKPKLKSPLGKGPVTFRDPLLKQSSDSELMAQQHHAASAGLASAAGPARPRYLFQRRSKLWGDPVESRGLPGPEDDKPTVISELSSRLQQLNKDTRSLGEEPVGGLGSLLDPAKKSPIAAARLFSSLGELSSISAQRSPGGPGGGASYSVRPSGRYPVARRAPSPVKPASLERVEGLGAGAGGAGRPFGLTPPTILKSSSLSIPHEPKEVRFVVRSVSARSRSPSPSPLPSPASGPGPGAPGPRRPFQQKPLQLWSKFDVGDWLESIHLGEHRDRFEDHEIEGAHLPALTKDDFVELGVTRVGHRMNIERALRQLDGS
The description is as above. Particulars: PDZ SHANK3, PDZ Domain 1. In outline: as §1

In test [4] the target is T4, PDZ protein (GST-PDZ fusion) (Homo sapiens, UniProt Q9Y566).
T4 construct: made in house; host or cells: E. coli (DH5alpha, BL21 or JM109)
T4 sequence (Q9Y566 whole entry, the tested form may be a part): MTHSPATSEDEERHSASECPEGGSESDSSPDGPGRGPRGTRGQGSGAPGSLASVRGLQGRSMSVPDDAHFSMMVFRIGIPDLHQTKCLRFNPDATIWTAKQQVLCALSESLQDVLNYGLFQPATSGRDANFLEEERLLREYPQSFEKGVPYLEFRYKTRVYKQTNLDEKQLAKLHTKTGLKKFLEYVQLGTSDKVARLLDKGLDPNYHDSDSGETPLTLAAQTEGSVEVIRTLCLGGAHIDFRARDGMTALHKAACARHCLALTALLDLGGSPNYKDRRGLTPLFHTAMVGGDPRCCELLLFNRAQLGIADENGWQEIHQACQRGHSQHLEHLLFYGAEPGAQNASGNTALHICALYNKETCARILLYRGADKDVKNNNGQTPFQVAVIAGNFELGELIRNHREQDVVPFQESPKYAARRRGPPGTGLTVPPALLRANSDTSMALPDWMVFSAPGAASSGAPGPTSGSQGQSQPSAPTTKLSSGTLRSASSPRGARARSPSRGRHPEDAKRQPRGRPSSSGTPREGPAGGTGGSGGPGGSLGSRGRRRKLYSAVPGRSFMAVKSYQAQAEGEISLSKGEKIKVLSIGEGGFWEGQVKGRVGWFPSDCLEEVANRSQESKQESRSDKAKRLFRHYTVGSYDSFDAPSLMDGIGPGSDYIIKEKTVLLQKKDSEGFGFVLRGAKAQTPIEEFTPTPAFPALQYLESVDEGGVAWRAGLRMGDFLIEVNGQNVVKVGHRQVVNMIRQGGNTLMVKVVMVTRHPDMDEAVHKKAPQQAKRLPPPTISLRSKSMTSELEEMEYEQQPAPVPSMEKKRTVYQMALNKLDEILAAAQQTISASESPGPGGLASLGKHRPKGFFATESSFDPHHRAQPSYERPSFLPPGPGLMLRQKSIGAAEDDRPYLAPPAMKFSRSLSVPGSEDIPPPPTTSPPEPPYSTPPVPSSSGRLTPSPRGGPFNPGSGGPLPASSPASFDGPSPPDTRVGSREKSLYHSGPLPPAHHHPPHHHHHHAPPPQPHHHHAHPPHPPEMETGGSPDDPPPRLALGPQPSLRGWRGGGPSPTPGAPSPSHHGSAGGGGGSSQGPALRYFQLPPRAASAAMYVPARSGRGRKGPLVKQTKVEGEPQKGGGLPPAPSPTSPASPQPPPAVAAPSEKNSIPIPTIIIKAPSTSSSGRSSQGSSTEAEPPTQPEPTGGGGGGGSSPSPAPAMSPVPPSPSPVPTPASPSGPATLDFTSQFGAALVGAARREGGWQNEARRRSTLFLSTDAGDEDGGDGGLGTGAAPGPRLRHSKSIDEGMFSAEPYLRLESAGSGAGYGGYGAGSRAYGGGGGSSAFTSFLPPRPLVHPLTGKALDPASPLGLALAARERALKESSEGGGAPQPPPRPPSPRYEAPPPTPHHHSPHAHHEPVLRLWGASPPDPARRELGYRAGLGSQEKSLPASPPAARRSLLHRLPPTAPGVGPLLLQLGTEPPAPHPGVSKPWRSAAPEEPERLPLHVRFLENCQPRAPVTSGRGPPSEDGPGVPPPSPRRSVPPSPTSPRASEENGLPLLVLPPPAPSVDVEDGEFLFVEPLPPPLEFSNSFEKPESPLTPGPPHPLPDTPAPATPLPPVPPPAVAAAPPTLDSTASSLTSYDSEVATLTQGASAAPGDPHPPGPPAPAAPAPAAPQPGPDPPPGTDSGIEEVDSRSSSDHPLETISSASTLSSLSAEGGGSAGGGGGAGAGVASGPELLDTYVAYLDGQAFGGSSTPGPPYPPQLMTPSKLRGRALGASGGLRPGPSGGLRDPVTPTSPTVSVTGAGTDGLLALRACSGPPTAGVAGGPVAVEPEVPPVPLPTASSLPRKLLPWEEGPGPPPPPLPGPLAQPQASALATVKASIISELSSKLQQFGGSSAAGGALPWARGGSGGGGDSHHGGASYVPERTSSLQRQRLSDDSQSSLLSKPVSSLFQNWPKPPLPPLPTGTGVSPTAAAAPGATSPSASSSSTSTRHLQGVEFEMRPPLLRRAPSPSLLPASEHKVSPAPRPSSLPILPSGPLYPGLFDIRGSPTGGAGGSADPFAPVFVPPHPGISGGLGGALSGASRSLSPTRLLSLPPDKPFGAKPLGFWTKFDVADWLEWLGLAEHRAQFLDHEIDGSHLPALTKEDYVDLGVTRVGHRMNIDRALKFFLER
The test is described as above. As to conditions: PDZ SHANK1, PDZ Domain 1. In outline: as §1

Test [5] concerns the target T5, PDZ-domain polypeptide (GST/PDZ fusion protein) (Homo sapiens, UniProt Q5T2W1).
T5 construct: made in house; host or cells: E. coli (DH5alpha, BL21 or JM109)
Put plainly: Apparent affinity (Kd) by titration of PL peptide in the G assay. Particulars: Peptide Optimal Conc (Kd by titration of the PL peptide), PDZ PDZK-1, PDZ Domain 2. How it is done: (§2) The third column labeled “Peptide Optimal Concentration” in the tables is a number reflective of the binding interaction between the PL protein and PDZ protein. […] The column labeled “Protein Optimal Concentration” refers to the protein concentration used to assay PL interaction (in ug/ml); a ‘0’ is indicative of 5 ug/ml protein concentration; any other value represents the concentration (in ug/ml) used to determine the dissociation constant for a given interaction.
The “A” and “G” assays described supra can be used to determine the “apparent affinity” of binding of a PDZ ligand peptide to a PDZ-domain polypeptide. Apparent affinity is determined based on the concentration of one molecule required to saturate the binding of a second molecule (e.g., the binding of a ligand to a receptor). Two particularly useful approaches for quantitation of apparent affinity of PDZ-ligand binding are provided infra.
In cases where satisfying the above criteria proves difficult, an alternative approach (infra) can be used.
(1) A fixed concentration of a PDZ-domain polypeptide and increasing concentrations of a labeled PL peptide (labeled with, for example, biotin or fluorescein, see TABLE 9 for representative peptide amino acid sequences) are mixed together in solution and allowed to react. In certain assays, peptide concentrations are 0.1 uM, 1 uM, 10 uM, 100 uM, 1 mM. In other assays, appropriate reaction times can range from 10 minutes to 2 days at temperatures ranging from 4° C. to 37° C. In some instances, the identical reaction can also be carried out using a non-PDZ domain-containing protein as a control (e.g., if the PDZ-domain polypeptide is fusion protein, the fusion partner can be used).
(2) PDZ-ligand complexes can be separated from unbound labeled peptide using a variety of methods known in the art.
(3) The PDZ-ligand complex is detected based on presence of the label on the peptide ligand using a variety of methods and detectors known to one of skill in the art. For example, if the label is fluorescein and the separation is achieved using HPSEC, an in-line fluorescence detector can be used. The binding can also be detected as described supra for the G assay.

In a further test the target is T6, KIAA0561 (PDZ Domain 1) (Homo sapiens, UniProt O60307).
T6 construct: made in house; host or cells: E. coli (DH5alpha, BL21 or JM109)
T6 sequence (O60307 with tags, fused parts or gaps): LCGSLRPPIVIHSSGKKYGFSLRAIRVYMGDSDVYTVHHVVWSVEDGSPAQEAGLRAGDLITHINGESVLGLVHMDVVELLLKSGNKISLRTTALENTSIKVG
Put plainly: G' assay, TABLE 12. Particulars: A450 nm class of biotinylated PL peptide bound; 0 in conc columns = peptide 10 uM, protein 5 ug/ml. How it is done:
as §2
(§3) Finally, the seventh column labeled “Classification” is another measure of the level of binding. In particular, it provides an absorbance value at 450 nm which indicates the amount of PL peptide bound to the PDZ protein. The following numerical values have the following meanings: ‘1’—A450 nm 0-1; ‘2’—A450 nm 1-2; ‘3’—A450 nm 2-3; ‘4’—A450 nm 3-4; ‘5’—A450 nm of 4 more than 2× repeated; ‘0’—A450 nm 0, i.e., not found to interact. Thus, higher numbers indicate stronger interactions.
(§4) For convenience, the assay conditions described in this section are referred to as the “G′ assay” and the “G″ assay,” with the specific conditions described in the preceding section on G assays being referred to as the “G^0 assay.” The “G′ assay” is identical to the “G^0 assay” except at step (2) the peptide concentration is 10 uM instead of 20 uM. […] Correspondingly, it slightly increases the certainty that detected interactions are of sufficient affinity and half-life to be of biological importance and useful therapeutic targets.

The target of the next test is T7, KIAA807 (Homo sapiens, UniProt Q6P0Q8).
T7 construct: made in house; host or cells: E. coli (DH5alpha, BL21 or JM109)
T7 sequence (Q6P0Q8 1104-1192 limits assumed): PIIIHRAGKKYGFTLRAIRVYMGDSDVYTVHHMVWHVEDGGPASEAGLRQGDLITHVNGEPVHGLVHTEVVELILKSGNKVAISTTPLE
Description: G' assay, TABLE 12. As to conditions: A450 nm class of biotinylated PL peptide bound; 0 in conc columns = peptide 10 uM, protein 5 ug/ml. How it is done:
as §2, §3, §4

Test [6] has as its target T8, PDZK1 (PDZ Domain 2, 3, 4) (Homo sapiens, UniProt Q5T2W1).
T8 construct: When more than one PDZ domain was cloned, the DNA portion cloned represents the PDZ domains and the cDNA portion located between individual domains; made in house; host or cells: E. coli (DH5alpha, BL21 or JM109)
Description: G' assay, TABLE 12. Particulars: A450 nm class of biotinylated PL peptide bound; 0 in conc columns = peptide 10 uM, protein 5 ug/ml. How it is done: as §2, §3, §4

In test [7] the target is T9, KIAA0807(S) (PDZ Domain 1) (Homo sapiens, UniProt Q6P0Q8).
T9 construct: made in house; host or cells: E. coli (DH5alpha, BL21 or JM109)
T9 sequence (Q6P0Q8 with tags, fused parts or gaps): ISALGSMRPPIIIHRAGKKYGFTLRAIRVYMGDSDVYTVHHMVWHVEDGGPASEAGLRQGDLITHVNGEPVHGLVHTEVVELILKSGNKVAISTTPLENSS
Description: G' assay and Kd titration, TABLE 12. On the procedure:
as §2, §3
For convenience, the assay conditions described in this section are referred to as the “G′ assay” and the “G″ assay,” with the specific conditions described in the preceding section on G assays being referred to as the “G^0 assay.” The “G′ assay” is identical to the “G^0 assay” except at step (2) the peptide concentration is 10 uM instead of 20 uM.

As to `CC(C)C[C@H](NC(=O)[C@H](CO)NC(=O)[C@H](CO)NC(=O)[C@H](CCCNC(=N)N)NC(=O)[C@H](CCCNC(=N)N)NC(=O)[C@H](Cc1c[nH]c2ccccc12)NC(=O)[C@H](CO)NC(=O)[C@@H]1CCCN1C(=O)CCCC[C@@H]1SC[C@@H]2NC(=O)N[C@@H]21)C(=O)N[C@@H](CO)C(=O)N[C@@H](CCC(=O)O)C(=O)N[C@@H](CO)C(=O)N[C@@H](CCC(=O)O)C(=O)N[C@@H](CC(N)=O)C(=O)N[C@@H](C)C(=O)N[C@H](C(=O)N[C@@H](CO)C(=O)N[C@@H](CC(C)C)C(=O)N[C@H](C(=O)N[C@H](C(=O)N[C@@H](Cc1ccccc1)C(=O)O)[C@@H](C)O)[C@@H](C)O)[C@@H](C)O` [BLR-1] (Biotin-PSWRRSSLSESENATSLTTF-OH; C-terminus assumed), the Classification is on record as 3 (A450 nm 2-3) in [1] (PDZ EBP50, PDZ Domain 1); 3 (A450 nm 2-3) in test [1] (PDZ EBP50, PDZ Domain 2); 1 (A450 nm 0-1) in test [2]; 3 (A450 nm 2-3) in test [3]; 3 (A450 nm 2-3) in test [4]; 1 (A450 nm 0-1) on KIAA0561 (PDZ Domain 1). Further, the Classification on KIAA807 is reported as 2 (A450 nm 1-2); in test [6], 1 (A450 nm 0-1); in [7] (A450 nm class of biotinylated PL peptide bound, 0 in conc columns = peptide 10 uM, protein 5 ug/ml), 2 (A450 nm 1-2). In addition, the Kd in test [5] came out at 2000 nM; in [7], 1000 nM.
